Experimental data reported in PubChem BioAssay AID248 (DTP/NCI, 2004).
Values joined by “and” are separate entries in the source; they are usually repeats but may differ in a detail not shown here. Equal values may be shown once. Toxic doses and inconclusive results are not listed. No stated cut-off is given here; in the data, active means T/C of 150% or more; inactive means T/C below 125%.

Tested on: L1210 leukemia ip in BDF1 mice, survival T/C
Experiment: NCI In Vivo Anticancer Drug Screen. Data for tumor model L1210 Leukemia (intraperitoneal) in B6D2F1 (BDF1) mice
Conditions: endpoint: mean survival time, higher = longer survival
In short: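 Antitumor effect is assessed in tumor-bearing animals. Survival in the compound arm is compared with a vehicle-dosed control arm and expressed as their quotient.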

[1] = dose: 100.0 mg/kg/injection, schedule: Q04DX003 (ip), vehicle: saline with Tween-80
[2] = dose: 200.0 mg/kg/injection, schedule: Q04DX003 (ip), vehicle: saline with Tween-80
[3] = dose: 400.0 mg/kg/injection, schedule: Q04DX003 (ip), vehicle: saline with Tween-80
[4] = dose: 100.0 mg/kg/injection, schedule: Q01DX001 (ip), vehicle: other
[5] = dose: 200.0 mg/kg/injection, schedule: Q01DX001 (ip), vehicle: other
[6] = dose: 400.0 mg/kg/injection, schedule: Q01DX001 (ip), vehicle: other
[7] = dose: 50.0 mg/kg/injection, schedule: Q04DX003 (ip), vehicle: saline with Tween-80
[8] = dose: 100.0 mg/kg/injection, schedule: Q01DX001 (ip), vehicle: saline
[9] = dose: 200.0 mg/kg/injection, schedule: Q01DX001 (ip), vehicle: saline
[10] = dose: 400.0 mg/kg/injection, schedule: Q01DX001 (ip), vehicle: saline
[11] = dose: 25.0 mg/kg/injection, schedule: Q01DX009 (ip), vehicle: saline with Tween-80
[12] = dose: 50.0 mg/kg/injection, schedule: Q01DX009 (ip), vehicle: saline with Tween-80
[13] = dose: 100.0 mg/kg/injection, schedule: Q01DX009 (ip), vehicle: saline with Tween-80
[14] = dose: 400.0 mg/kg/injection, schedule: Q01DX009 (ip), vehicle: saline with Tween-80
[15] = dose: 200.0 mg/kg/injection, schedule: Q01DX009 (ip), vehicle: saline with Tween-80
[16] = dose: 100.0 mg/kg/injection, schedule: Q04DX002 (ip), vehicle: saline with Tween-80
[17] = dose: 200.0 mg/kg/injection, schedule: Q04DX002 (ip), vehicle: saline with Tween-80
[18] = dose: 400.0 mg/kg/injection, schedule: Q04DX002 (ip), vehicle: saline with Tween-80

Measured: T/C

CN1CCNC(=O)CC1
inactive: dose: 25.0 mg/kg/injection, schedule: Q01DX009 (ip), vehicle: water 106 % of control | dose: 50.0 mg/kg/injection, schedule: Q01DX009 (ip), vehicle: water 102 % of control | dose: 100.0 mg/kg/injection, schedule: Q01DX009 (ip), vehicle: water 98 % of control | dose: 200.0 mg/kg/injection, schedule: Q01DX009 (ip), vehicle: water 114 % of control

CC(C)NC(=O)CN=NNc1nc[nH]c1C(N)=O
inactive: dose: 25.0 mg/kg/injection, schedule: Q01DX001 (ip), vehicle: Klucel (hydroxypropylcellulose) (HPC) 95 % of control | dose: 25.0 mg/kg/injection, schedule: Q04DX003 (ip), vehicle: Klucel (hydroxypropylcellulose) (HPC) 99 % of control | dose: 50.0 mg/kg/injection, schedule: Q01DX001 (ip), vehicle: Klucel (hydroxypropylcellulose) (HPC) 100 % of control | dose: 50.0 mg/kg/injection, schedule: Q04DX003 (ip), vehicle: Klucel (hydroxypropylcellulose) (HPC) 94 % of control | dose: 100.0 mg/kg/injection, schedule: Q01DX001 (ip), vehicle: Klucel (hydroxypropylcellulose) (HPC) 97 % of control | dose: 100.0 mg/kg/injection, schedule: Q04DX003 (ip), vehicle: Klucel (hydroxypropylcellulose) (HPC) 101 % of control

CS(=O)(=O)C1(S(C)(=O)=O)Cc2ccccc2C1
inactive: [1] 91 % of control | [2] 92 % of control | [3] 100 % of control

CC(=O)NC(C(C)=O)C(C)=O.CC(=O)NC(C(C)=O)C(C)=O.[Cu]
inactive: dose: 12.0 mg/kg/injection, schedule: Q01DX001 (ip), vehicle: saline 90 % of control | dose: 25.0 mg/kg/injection, schedule: Q01DX001 (ip), vehicle: saline 88 % of control

C(=N\n1cnc2c(SCc3ccccc3)ncnc21)/c1ccccc1
inactive: [4] 93 % of control | [5] 91 % of control | [6] 91 % of control

O=C1/C(=C/c2ccco2)CCC2CC3(CCC12)OCCO3 (configuration not stated)
inactive: dose: 100.0 mg/kg/injection, schedule: Q01DX009 (ip), vehicle: saline 116 % of control | dose: 100.0 mg/kg/injection, schedule: Q04DX003 (ip), vehicle: saline 92 % of control | dose: 200.0 mg/kg/injection, schedule: Q01DX009 (ip), vehicle: saline 102 % of control | dose: 200.0 mg/kg/injection, schedule: Q04DX003 (ip), vehicle: saline 97 % of control | dose: 400.0 mg/kg/injection, schedule: Q01DX009 (ip), vehicle: saline 98 % of control | dose: 400.0 mg/kg/injection, schedule: Q04DX003 (ip), vehicle: saline 94 % of control

CC(C)N(C(=O)C1C2C=CC(C2)C1C(=O)N(C(C)C)C(C)C)C(C)C (configuration not stated)
inactive: dose: 25.0 mg/kg/injection, schedule: Q04DX003 (ip), vehicle: saline with Tween-80 98 % of control | [7] 98 % of control | [1] 106 % of control and 107 % of control

O=C1CCC2OC(=O)C3CCCC1C23 (configuration not stated)
inactive: [8] 103 % of control | [9] 97 % of control | [10] 101 % of control

Clc1ccc(C(c2cccs2)N2CCNCC2)cc1 (configuration not stated)
inactive: [11] 96 % of control | [12] 90 % of control | [1] 98 % of control

Cc1c(Cl)cccc1NC(=O)NCCC(C)C
inactive: [13] 86 % of control | [1] 93 % of control | [2] 91 % of control | [14] 89 % of control | [3] 95 % of control

C=C(C)COc1c(Cl)cc(Cl)cc1C=Nc1ccccc1
inactive: [12] 101 % of control | dose: 100.0 mg/kg/injection, schedule: Q01DX001 (ip), vehicle: saline with Tween-80 94 % of control | [13] 90 % of control | dose: 200.0 mg/kg/injection, schedule: Q01DX001 (ip), vehicle: saline with Tween-80 89 % of control | [15] 104 % of control

O=[N+]([O-])c1ccc(OCCCCCBr)c(Cl)c1
inactive: dose: 100.0 mg/kg/injection, schedule: Q04DX003 (ip), vehicle: gum acacia 102 % of control | dose: 200.0 mg/kg/injection, schedule: Q04DX003 (ip), vehicle: gum acacia 100 % of control | dose: 400.0 mg/kg/injection, schedule: Q04DX003 (ip), vehicle: gum acacia 102 % of control

CC1CC(C)(C)N=C(C2(c3ccccc3)CC2)O1 (configuration not stated)
inactive: [11] 102 % of control | [12] 98 % of control | [7] 88 % of control | [13] 100 % of control | [1] 95 % of control | [15] 98 % of control

c1ccc(Cc2nn[nH]n2)cc1
inactive: dose: 100.0 mg/kg/injection, schedule: Q04DX002 (ip), vehicle: Klucel (hydroxypropylcellulose) (HPC) 105 % of control | dose: 200.0 mg/kg/injection, schedule: Q04DX002 (ip), vehicle: Klucel (hydroxypropylcellulose) (HPC) 101 % of control | dose: 400.0 mg/kg/injection, schedule: Q04DX002 (ip), vehicle: Klucel (hydroxypropylcellulose) (HPC) 105 % of control

C[N+](C)(CCN1C(=O)c2ccc3c4c(ccc(c24)C1=O)C(=O)N(CC[N+](C)(C)Cc1ccccc1)C3=O)Cc1ccccc1
inactive: dose: 0.1 mg/kg/injection, schedule: Q01DX001 (ip), vehicle: saline 105 % of control | dose: 0.2 mg/kg/injection, schedule: Q01DX001 (ip), vehicle: saline 101 % of control | dose: 0.4 mg/kg/injection, schedule: Q01DX001 (ip), vehicle: saline 110 % of control | dose: 0.78 mg/kg/injection, schedule: Q01DX001 (ip), vehicle: saline 106 % of control

O=C(O)c1c(Cl)c(Cl)cc(Cl)c1Cl
inactive: dose: 75.0 mg/kg/injection, schedule: Q01DX001 (ip), vehicle: saline 93 % of control | dose: 150.0 mg/kg/injection, schedule: Q01DX001 (ip), vehicle: saline 93 % of control | dose: 300.0 mg/kg/injection, schedule: Q01DX001 (ip), vehicle: saline 96 % of control

C=CCC1CC2(C)C(CCC3C2CCC2(C)C(C(C)CCCC(C)C)CCC32)CC1O (configuration not stated)
inactive: dose: 100.0 mg/kg/injection, schedule: Q01DX009 (ip), vehicle: gum acacia 87 % of control | dose: 200.0 mg/kg/injection, schedule: Q01DX009 (ip), vehicle: gum acacia 87 % of control | dose: 400.0 mg/kg/injection, schedule: Q01DX009 (ip), vehicle: gum acacia 104 % of control

O=C(CCl)NCc1ccc(Cl)cc1
inactive: dose: 50.0 mg/kg/injection, schedule: Q01DX001 (ip), vehicle: other 102 % of control | [4] 93 % of control | [5] 102 % of control

CN(C)S(=O)(=O)c1ccc(NC(=O)CCl)cc1
inactive: [4] 98 % of control | [13] 106 % of control | dose: 100.0 mg/kg/injection, schedule: Q04DX003 (ip), vehicle: other 97 % of control | [5] 110 % of control | [15] 102 % of control | dose: 200.0 mg/kg/injection, schedule: Q04DX003 (ip), vehicle: other 103 % of control | [6] 93 % of control | [14] 100 % of control | dose: 400.0 mg/kg/injection, schedule: Q04DX003 (ip), vehicle: other 98 % of control

CC1(C(=O)O)CCC(C(=O)O)C1(C)C (configuration not stated)
inactive: [16] 105 % of control | [17] 100 % of control | [18] 93 % of control

Nc1nc(N)c(-c2ccc(Cl)c(Cl)c2)c(C=O)n1
inactive: [8] 107 % of control | [9] 114 % of control | [10] 111 % of control

Nc1cccc(C(=O)NCc2cccnc2)c1
inactive: dose: 100.0 mg/kg/injection, schedule: Q04DX002 (ip), vehicle: saline 110 % of control | dose: 200.0 mg/kg/injection, schedule: Q04DX002 (ip), vehicle: saline 107 % of control | dose: 400.0 mg/kg/injection, schedule: Q04DX002 (ip), vehicle: saline 104 % of control

Nc1cccc2ncc(C=O)n12
inactive: dose: 37.5 mg/kg/injection, schedule: Q01DX001 (ip), vehicle: Klucel (hydroxypropylcellulose) (HPC) 102 % of control | dose: 75.0 mg/kg/injection, schedule: Q01DX001 (ip), vehicle: Klucel (hydroxypropylcellulose) (HPC) 96 % of control | dose: 150.0 mg/kg/injection, schedule: Q01DX001 (ip), vehicle: Klucel (hydroxypropylcellulose) (HPC) 95 % of control

COc1ccc(OC)c(NC(=O)Oc2cc(C)c(Cl)c(C)c2)c1
inactive: [16] 93 % of control | [17] 96 % of control | [18] 101 % of control
